For data set [1], the system named is J774 macrophages. Nature of the data set: Alamar Blue macrophage J774 viability assay. Type of data set: cell-based. The settings on record: Mus musculus, 72 hours culture with compound, Alamar Blue read-out. As for the experimental part: Initial screening of candidate compounds was performed using in vitro assays to determine potency, metabolic stability and solubility in biologically relevant fluids. Potency was assessed using a viability assay based on the survival of the J774 macrophage cell line. Macrophages are closely related to osteoclasts and have been used previously as a model system for osteoclast survival (see, e.g., Luckman et al., 1998). Like osteoclasts, J774 macrophages are dependent on continued NFκB activation for survival, thereby providing a valuable screen for compounds with anti-inflammatory activity. Metabolic stability was measured by determining the rate of disappearance of compound in the presence of human liver microsomal preparations, as quantified by LC-MS/MS. Solubility was measured by equilibration of the compound in fasted state simulated intestinal fluid (FaSSIF) and quantified by HPLC.
In vitro potency as anti-inflammatory agents was determined for a number of APSAP compounds by incubation with J774 macrophages and subsequent determination of cell viability.
J774 cells were plated at 10^4 cells per well in 100 μL αMEM (α Modified Eagle Medium) in 96-well plates and grown overnight. The next day, test compounds were added to the cultures, and cultures were continued for another 72 hours. At the end of the culture period, cell survival was determined using an Alamar Blue assay as previously described (see, e.g., Nociari et al., 1998).
Alamar Blue is an oxidation-reduction sensitive indicator. The dye itself is in the oxidised state, which is blue and non-fluorescent. The dye can accept electrons from reducing species, such as NADPH and FADH, to form a reduced dye species, which is red and fluorescent. Thus the transformation from oxidised form to reduced form can be measured by fluorimetric or colourimetric means. For fluorescence measurements, 530-560 nm excitation and 590 nm emission wavelengths are typically used. For colourimetric measurements, absorbance at 570 nm (reduced form) and 600 nm (oxidised form) is typically measured. A simple calculation is performed to determine the relative quantities of the two species.
A high ratio of the reducing species, NADPH and FADH, to the corresponding oxidised species, NADP and FAD, is an indicator that cells are proliferating and viable. A low ratio indicates cells that are quiescent or non-viable.
Briefly, Alamar Blue (Biosource International) was added undiluted to each well (1:10 v/v, 10 μL). The plate was incubated at 37° C. for 3-4 hours and the fluorescence was measured at 590 nm, with a 25 nm bandwidth. A high reading indicated cells with normal viability, and a low reading indicated cells that have been damaged and are no longer proliferating normally. The controls gave a high fluorescence reading, indicating a high number of live, healthy cells. A potent test compound gave a low fluorescence reading.
The average results for each test compound (n=5) were expressed as a percent (%) of the average control value.
Addition of Compounds. All of the compounds studied were made up as 100 mM solutions in DMSO. These stock solutions were then diluted 1000-10000× in culture medium (αMEM). From these 100 μM or 10 μM solutions, convenient quantities (3-33 μL) were added directly to the wells so as to give the desired final compound concentration.

Data set [2] in a line: In vivo pharmacokinetics in rat, oral and intravenous. On the set-up: species or system Sprague-Dawley rats. The settings on record: 1 mg/kg. As to the method:
Absorption and metabolic stability were studied using an in vivo pharmacokinetics assay. Drug levels were assessed using ultra-performance LC/TOF-MS.
Three male Sprague-Dawley rats, 200-300 g, were dosed per route. […] Test compound was formulated in 50:50 tetraethylene glycol:PBS for both routes. Animals were given free access to food throughout the study. On the day prior to dosing, the carotid artery was cannulated for sample collection and for the intravenous study, the jugular vein was cannulated to enable dosing.
Blood samples were taken from the carotid artery at the following time points and placed in heparinised tubes:
Oral dosing—predose, 0.25, 0.5, 1, 2, 4, 8 and 24 hours post dose.
IV dosing—predose, 0.08, 0.25, 0.5, 1, 2, 4 and 8 hours post dose.
Blood samples were centrifuged to obtain plasma, which was transferred to a separate container and frozen at −20° C.
Samples were thawed at room temperature and prepared by protein precipitation with acetonitrile in the ratio 1:2 with plasma, followed by centrifugation for 10 minutes at 16,100×g (Eppendorf 5415D, Eppendorf AG, Hamburg, Germany). The supernatants were collected for analysis. The standard samples were prepared similarly, after spiking blank rat plasma samples to study compound concentrations at 1, 2, 5, 10, 20, 50, 100, 200, 500 and 1000 ng/mL. In addition, extra samples were prepared from 0-1 hour i.v. samples by diluting 1/20 with 50% aqueous acetonitrile to avoid exceeding the linear range of the analytical method.
A Waters Acquity liquid ultra-performance chromatographic system (Waters Corp., Milford, Mass., USA) with autosampler, vacuum degasser and column oven was used. The analytical column used for all compounds was a Waters BEH C18, (2.1×50 mm, 1.7 μm, Waters Corp, Milford, Mass., USA) together with a 0.2 μm on-line filter before the column. The eluents were 0.1% acetic acid (A, pH 3.2) and methanol (B). Gradient elution from 5% to 60% B in two minutes was employed, followed by one minute gradient to 90% B and column equilibration. The flow rate was 0.5 mL/min and the column oven temperature was 35° C. The flow was directed to the MS via Water Acquity photo-diode-array (PDA) detector. LC/TOF-MS data were recorded with a Micromass LCT Premier XE time-of-flight (TOF) mass spectrometer (Micromass Ltd., Manchester, England) equipped with a LockSpray electrospray ionization source. A positive ionization mode of electrospray was used for all compounds. The mass range of m/z 100-900 was acquired. The W-option of the reflector was used, and the DRE (dynamic range enhancement) option was set to on. The mass spectrometer and HPLC system were operated under Micromass MassLynx 4.1 software. Leucine enkephalin ([M+H]^+ m/z 556.2771) was used as a lock mass compound for accurate mass measurements and was delivered into the LockSpray probe with a syringe pump. MassLynx 4.1 software was used for controlling the instrumentation and for data processing.
The pharmacokinetic parameters for the test compounds were calculated by WinNonlin Pro (Pharsight Corp, CA) using standard noncompartmental methods. The elimination phase half-life (t1/2) was calculated by least-squares regression analysis of the terminal linear part of the log concentration−time curve. The area under the plasma concentration−time curve (AUC) was determined by use of the linear trapezoidal rule up to the last measurable concentration and thereafter by extrapolation of the terminal elimination phase to infinity. The tentative oral bioavailability (F) was calculated by dividing the AUC (0-24 hours) after p.o. administration by the AUC (0-8 hours) after i.v. administration, i.e., F=AUC(p.o.)/AUC(i.v), and reported as percentages (%).

Like-named read-outs stand apart in the source and are kept apart here.

1 molecule from US8207167B2, “Aryl-phenyl-sulfonamide-phenylene compounds and their use” (PIMCO 2664 Limited, priority 2008, dated 2012) can be followed below.

With `CNC(CO)c1cccc(NS(=O)(=O)c2ccc(-c3ccc(F)cc3F)cc2)c1` (stereo not shown) [ABD789, 2′,4′-Difluoro-N-(3-(2-hydroxy-1-(methylamino)ethyl)phenyl)biphenyl-4-sulfonamide], in data set [1], the IC50 (usually the midpoint of a concentration-inhibition curve) came out at 140 nM. Besides, the AUC in data set [2] (i.v.) amounted to 11900 ng/mL/min; in data set [2] (p.o.) it was 1500 ng/mL/min. For the same molecule, the half-life in data set [2] (male, Sprague-Dawley, plasma, iv, i.v., read-out: T½ (converted)) was 0.81 h; in data set [2] (male, Sprague-Dawley, plasma, po, following oral administration, read-out: extended half life (converted)) it was 7.67 h; in data set [2] (male, Sprague-Dawley, plasma, po, p.o., read-out: T½ (converted)) it was 3.17 h. In addition, in data set [2] (male, Sprague-Dawley, plasma, oral, read-out: Bioavailability F %), the bioavailability (usually the share of a dose that reaches the circulation, judged against a reference dose that is usually intravenous) is 38%.
